For 89 compounds, melting point results are on record in a melting point compilation (Tetko et al.; mined from patent text by program, amines drawn as free bases though some values may be those of a salt).

The term melting point denotes the temperature, or range, at which the solid turns liquid. The compound `COc1ccc(Cl)cc1C(=O)NCc1ccc(-c2ccc(OC(C)(C)C(=O)O)cc2)cc1` had a melting point of 104 °C.

Turning to `CCSCCC(=O)NCC(=O)N1Cc2ccccc2Oc2ccc(Cl)cc21`, the melting point lay in the range of 148 to 151 °C.

In turn, `O=C(NCCN1CCN(c2ncccn2)CC1)NC12CC3CC(CC(C3)C1)C2` returned a melting point of 170 to 171 °C.

`Cc1cnc2c(c1)C(O)C(Cc1ccc(C#N)cc1)CC2` (centres undefined) registered a melting point of 174 to 175 °C.

The compound `CCOC(=O)Cc1ccc(NC(=O)C(COc2cccc(Cl)c2)NS(=O)(=O)c2ccc(F)cc2)cc1` (racemic) came in with a melting point of 164 to 165 °C.

For the compound `CCCCc1nc(C(O)C(C)(C)C)c(C(N)=O)n1Cc1ccc(-c2ccccc2C(=O)O)cc1` (centres undefined), the melting point lay in the range of 150 to 154 °C.

`CCOC(=O)COc1nnc(-c2ccc3c(c2)CCO3)o1` displayed a melting point of 103 to 104 °C.

Compound `CC(C)(C)C(=O)NNc1cc(F)c(C#N)cc1F` came in with a melting point of 167 °C.

On to `Cc1cc2cnn(-c3ccccc3)c2nc1OCc1ncnn1C`, for which the melting point fell in the range of 145 to 146 °C.

In the case of `O=C1Nc2ccc(Cl)cc2C1(NCCO)c1ccccc1Cl` (centres undefined), the melting point lay in the range of 198 to 200 °C.

Compound `CNC(=O)c1cccc(F)c1Nc1nc(Nc2ccc3c(c2)N(CCOC)C(=O)CCC3)ncc1Cl` had a melting point of 199 to 204 °C.

Turning to `Cc1nn(-c2c(Cl)cc(C(F)(F)F)cc2Cl)nc1Br`, the melting point was found to be 82 °C.

Take `COC(=O)c1nc(CN2CCOCC2)n(-c2ccc(Cl)cc2C(=O)c2ccccc2Cl)n1`: the melting point was 141 to 143 °C.

Compound `CCONC(=O)NNC(=O)CC` displayed a melting point of 122 °C.

Compound `COC(=O)c1c(N(CC(C)C)CC(C)C)cccc1S(=O)(=O)NC(=O)Nc1nc(OC)cc(OC)n1` had a melting point of 166 to 167 °C.

The compound `CNC(=O)/C=C/c1cccc(Br)c1` displayed a melting point of 147 to 148 °C.

On to `COCOc1ccc(Cl)cc1-c1cc(-c2cccc([N+](=O)[O-])c2)c(C#N)c(NC(=O)c2cccs2)n1`, for which the melting point was 161 to 162 °C.

As to `COc1ccc(S(=O)(=O)Nc2cccnc2Nc2cccc(F)c2)cc1`, the melting point lay within 180 to 181 °C.

In turn, `Nc1nc2cc(Cl)c(Cl)cc2nc1-c1cccs1` gave a melting point of 235 to 237 °C.

Compound `COc1ccc(O)c(C2(CCCCSC)Sc3ccccc3N(C)C2=O)c1` (centres undefined) yielded a melting point of 148 to 150 °C.

Regarding `NS(=O)(=O)c1cccc(-c2cn(-c3nc(-c4ccc(F)cc4)cc(C(F)(F)F)n3)cn2)c1`, the melting point was determined as 260 °C.

`CC(C)(C)OC(=O)N(C(=O)OC(C)(C)C)C(=O)c1cc2cc(Br)ccc2o1` returned a melting point of 138 to 139 °C.

In turn, `CCCC[C@H](NC(=O)[C@H](CC(C)C)NC(=O)OCc1ccccc1)C(=O)CCCc1cccs1` returned a melting point of 65 to 67 °C.

Compound `O=c1[nH]cc(-c2ccccc2)c2ncccc12` yielded a melting point of 260 to 263 °C.

`O=C(Nc1ccc2nc3[nH]c(=O)[nH]c3cc2c1)c1ccccc1` yielded a melting point above 300 °C.

`COc1ccc(S(=O)(=O)C(CCCCc2ccccc2)CC(=O)NO)cc1OC` (centres undefined) yielded a melting point of 157 to 159 °C.

`O=C(CCCCC1CCSS1)N1CCSCC1` (centres undefined) showed a melting point of 31 to 32 °C.

In turn, `CC(=O)c1ccc(C(=O)Nc2ccc(C(C)(C)C)cc2)cc1` had a melting point of 183 to 184 °C.

For the compound `Clc1ccc(-c2cc(C3CCN(Cc4ccccc4)CC3)n[nH]2)cc1`, the melting point fell in the range of 164 to 167 °C.

`NC(=O)c1cc(Cl)c(N[C@H]2CC[C@H](N)CC2)cc1F` yielded a melting point of 160 to 162 °C.

Take `Cc1cc(Cl)cc(C(=O)NCC2CC2)c1NC(=O)c1cc(Br)nn1-c1ncccc1Cl`: the melting point lay in the range of 166 to 168 °C.

As to `C=CCOc1cc2c(cc1Br)CC[C@H]2CCNC(=O)CC`, the melting point lay within 86 to 87 °C.

As to `CS(=O)(=O)Nc1ccc(CC(=O)O)cc1`, the melting point was in the range of 145 to 147 °C.

With `Fc1cc(F)c2c(c1)C[C@@H](n1ccn(CCc3ccccc3)c1=S)CC2`, the melting point fell in the range of 131 to 133 °C.

Regarding `CC(=O)Oc1cccc(-c2csc3nc(C45CC6CC(CC(C6)C4)C5)cn23)c1`, the melting point fell in the range of 199 to 201 °C.

For the compound `O/N=C1\CCCc2c1c1ccccc1n2-c1ccc(OCc2ccccc2)cc1`, the melting point is 241 to 243 °C.

In turn, `CC(CCC(=O)O)C1CCC2C3=CC=C4C(C)(C)C(O)CCC4(C)C3CCC21C` (centres undefined) came in with a melting point of 210 to 213 °C.

Turning to `CCC(=O)Nc1ccc(OC)c(=O)cc1`, the melting point fell in the range of 116 to 118 °C.

With `Cc1cccc(-c2[nH]c(C(C)C)nc2-c2ccc(F)c(-c3ccc[nH]3)c2)n1`, the melting point lay in the range of 103 to 106 °C.

In turn, `O=C(c1ccc(F)cc1)N1CCC[C@H](c2noc(-c3ccc(F)cn3)n2)C1` gave a melting point of 108 to 110 °C.

The compound `Nc1ccc(SCCn2cnnc2)cc1` yielded a melting point of 160 to 162 °C.

On to `CNC(=O)c1ccc(N2CCN(c3ccncc3)CC2)cc1`, for which the melting point was in the range of 239 to 242 °C.

In the case of `CCc1ccc2oc(Cc3cccc(OC)c3)c(CCNC(C)=O)c2c1`, the melting point amounted to 102 °C.

`COC(=O)c1ccc(-c2nc(-c3ccc(C(F)(F)F)cc3)co2)cc1` came in with a melting point of 182 to 183 °C.

Compound `CC1(C)CON(Cc2ccc(NC(=O)C3=C(C(=O)O)CCCC3)cc2Br)C1=O` returned a melting point of 149 to 151 °C.

The compound `Nc1ccc(N2CCN(Cc3ccccc3)CC2)cc1CS(=O)(=O)c1ccccc1` displayed a melting point of 141 to 143 °C.

For `O=C1NCCCN1C1CCN(Cc2ccccc2)CC1`, the melting point lay within 178 to 180 °C.

For the compound `S=c1c2c(ncn2Cc2cccnc2)c2cccnc2n1-c1ccccc1`, the melting point lay in the range of 222 to 224 °C.

Take `COc1c(C)c(C)c2c(c1C)C(CO)C(C)(C)O2` (centres undefined): the melting point was 79 to 81 °C.

In turn, `OCC1CN(Cc2ccccc2)CCN1Cc1ccccc1` (centres undefined) gave a melting point of 77 °C.

The compound `O=C(Cc1ccc(Cl)c(Cl)c1)N1CCN(Cc2ccccc2)CC1CO` (centres undefined) came in with a melting point of 148 to 150 °C.

Consider `COc1ccc2cc(N)cc3c2c1C(=O)N(O)C3=O`, for which the melting point was above 250 °C.

`CCCCNCc1ccc2cc(OC)ccc2c1` registered a melting point of 55 to 80 °C.

Take `Cc1nc(-c2cccnc2)sc1-c1ccnc(Nc2ccc(N3CCOCC3)cc2)n1`: the melting point was in the range of 240 to 242 °C.

Regarding `COc1ccccc1-c1ccccc1/C=C/C1CC(O)CC(=O)O1` (centres undefined), the melting point fell in the range of 129 to 131 °C.

Turning to `CC(=O)Nc1cccc(NC(=O)Cc2ccc(-n3c(-c4cccnc4N)nc4ccc(C)nc43)cc2)c1`, the melting point was in the range of 207 to 209 °C.

The compound `COc1ccc(CC(C#N)C(=O)O)cc1` (centres undefined) displayed a melting point of 94 to 95 °C.

As to `COc1ncnc(OC)c1N(C(=O)CCl)C(C)n1cccn1` (centres undefined), the melting point fell in the range of 124 to 126 °C.

On to `C/C(=C\C=C(c1ccccc1)c1ccccc1)C(=O)Oc1ccc([N+](=O)[O-])cc1`, for which the melting point lay within 139 to 141 °C.

In turn, `Nc1cc2c(cc1Cl)N1CCCN=C1C2=O` yielded a melting point above 270 °C.

For `NS(=O)(=O)c1cccc(-c2noc(-c3cnn4ccc(-c5ccc(Cl)cc5)nc34)n2)c1`, the melting point worked out at 223 °C.

In turn, `CCOC(=O)CCCOc1ccc([N+](=O)[O-])c(C=C2NC(=O)NC2=O)c1` registered a melting point of 131 to 134 °C.

`CCCc1nn(C)c2c(OCCOc3ccc(CC(OCC)C(=O)O)cc3)nc(C)nc12` (centres undefined) came in with a melting point of 142 to 144 °C.

In turn, `CCOC(=O)c1[nH]c2cc3[nH]c(C)c(C(=O)OC)c3c(C)c2c1C` returned a melting point of 247 to 250 °C.

The compound `CCSC1=C(c2ccc(O)cc2)C(=O)c2ccc(O)cc21` returned a melting point of 100 to 102 °C.

For `CC(=O)Cc1ccc(OCC2CO2)cc1` (centres undefined), the melting point was determined as 43 °C.

As to `COc1cc(OC)c(-c2nc(NC(=O)c3cc4ccccc4[nH]3)sc2C)cc1Cl`, the melting point was found to be 249 °C.

`Nc1nc(N)c(C(=O)NC2=NCCN2)nc1Cl`: the melting point came out at 236 °C.

For the compound `CN(Cc1ccccc1)C(=O)c1cnc2c3c(c(F)cc2c1)C(=O)C(C#N)C=N3` (centres undefined), the melting point fell in the range of 267 to 269 °C.

Regarding `COC(=O)Oc1c(Cl)c(-c2ccc(Cl)cc2)oc(=O)c1-c1c(C)cc(C)cc1C`, the melting point is 136 to 138 °C.

Consider `O=C(O)c1ccc(-c2cccc(O)c2)cc1`, for which the melting point amounted to 180 °C.

Regarding `O=C(O)c1ccc(OCCNC(=O)C2Cc3ccccc3N2S(=O)(=O)c2ccc(-c3ccc(F)cc3F)cc2)cc1F` (centres undefined), the melting point was in the range of 91 to 94 °C.

Compound `N#Cc1ncn2c1NCC=C2c1cccc(C(F)(F)F)c1` displayed a melting point of 241 to 243 °C.

For the compound `CN(C)C=Nc1[nH]nc(-c2cccc([N+](=O)[O-])c2)c1C#N`, the melting point was 221 to 225 °C.

Take `COC(=O)c1cccc2c1ccn2C`: the melting point fell in the range of 194 to 195 °C.

As for `CN(C)CCNC(=O)c1ccc(-c2nnc(CSCCOc3ccccc3)o2)cc1`, the melting point was 94 to 100 °C.

As for `CC(O)c1ccc(OCCCN2CCC(c3noc4cc(F)ccc34)CC2)c(O)c1` (centres undefined), the melting point was 142 to 144 °C.

The compound `Cc1ccc(-n2nc(C(F)F)cc2-c2ccc(S(C)(=O)=O)cc2)cc1Br` yielded a melting point of 136 to 138 °C.

With `CC(C)(C)c1cc(C(c2cccc([N+](=O)[O-])c2)N2CCCCC2)cc(C(C)(C)C)c1O` (centres undefined), the melting point was 157 °C.

For `C=CCc1cccc2c(=O)cc(-c3ccc(F)c(F)c3)oc12`, the melting point lay in the range of 127 to 130 °C.

As to `CS(=O)(=O)CCCn1c(=NC(=O)c2cccc(Cl)c2)sc2cc(OC(F)(F)F)ccc21`, the melting point worked out at 188 °C.

Turning to `NC(=O)c1cccc(OCc2cccc(O)c2)c1`, the melting point was in the range of 122 to 123 °C.

`C[C@@H](CCCCC(=O)O)NC(=O)OCc1ccccc1`: the melting point was in the range of 82 to 83 °C.

`CN1CCN(Cc2c(Cl)ccc(C(=O)O)c2Cl)C1=O` had a melting point of 221 °C.

Compound `CCCCCCCCCc1cc(-c2ccccc2)c(OCC(=O)O)c(-c2ccccc2)c1` showed a melting point of 63 to 65 °C.

`O=C(c1nn(-c2ccc(F)cc2F)c2c1C1CCC2C1)N1CCc2ccccc2C1` (centres undefined): the melting point lay within 134 to 138 °C.

Turning to `O=C(c1ccccc1O)c1ccccc1Br`, the melting point came to 78 °C.

As for `CC(C)(C)OC(=O)N[C@H]1CC[C@H](CCN2CCN(c3nccc4c3OCC4)CC2)CC1`, the melting point came out at 141 °C.

`COc1ccc(-c2cc(F)c(F)cc2-c2ccc(S(C)(=O)=O)cc2)cc1Cl`: the melting point turned out to be 148 °C.
